Results: ChEMBL document CHEMBL1201862, “PubChem BioAssay data set” (2004)
The source made the active and inactive calls. Cut-off read from the data, not from the text of the source: actives have a measured IC50 and inactives only a lower limit.

Target: Envelope glycoprotein gp160 (Human immunodeficiency virus 1, UniProt Q6QLK5)
Assay: inhibitors of HIV fusion peptide binding, primary screen, biochemical, uHTS, fluorescence dequenching (AID 1986)

Chain of Envelope glycoprotein gp160 (Q6QLK5 whole entry, the tested form may be a part): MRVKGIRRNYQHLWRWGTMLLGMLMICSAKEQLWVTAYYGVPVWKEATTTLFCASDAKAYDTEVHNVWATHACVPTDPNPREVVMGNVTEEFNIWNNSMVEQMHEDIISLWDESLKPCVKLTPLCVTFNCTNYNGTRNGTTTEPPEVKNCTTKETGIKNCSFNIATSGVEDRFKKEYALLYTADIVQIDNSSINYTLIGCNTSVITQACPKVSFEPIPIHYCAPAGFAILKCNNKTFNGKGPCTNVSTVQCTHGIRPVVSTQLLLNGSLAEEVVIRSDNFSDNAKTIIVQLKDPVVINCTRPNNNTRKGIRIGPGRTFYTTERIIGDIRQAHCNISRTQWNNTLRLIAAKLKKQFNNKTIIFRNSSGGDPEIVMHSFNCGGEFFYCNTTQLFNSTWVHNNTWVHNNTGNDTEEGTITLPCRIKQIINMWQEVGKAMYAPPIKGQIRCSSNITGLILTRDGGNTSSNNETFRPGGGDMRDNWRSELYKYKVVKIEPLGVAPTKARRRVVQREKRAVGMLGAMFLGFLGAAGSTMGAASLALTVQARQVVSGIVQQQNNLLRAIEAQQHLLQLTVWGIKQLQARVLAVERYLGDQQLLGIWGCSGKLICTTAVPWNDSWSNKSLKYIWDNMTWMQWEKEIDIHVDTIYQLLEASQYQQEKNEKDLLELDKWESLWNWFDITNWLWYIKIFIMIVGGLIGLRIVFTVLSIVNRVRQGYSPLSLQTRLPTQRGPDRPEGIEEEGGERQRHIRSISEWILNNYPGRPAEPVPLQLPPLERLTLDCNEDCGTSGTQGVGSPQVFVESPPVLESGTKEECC

**Q.** O=C(O)CCn1cc(/C=C/C(=O)c2ccc(Cl)cc2)c(-c2ccc(Br)cc2)n1 was tested. Which IC50 did it give?
**A.** 21.4 µM (active)

**Q.** For O=C(O)CN1C(=O)/C(=C\c2cc(Br)ccc2OCc2ccc(Cl)cc2)SC1=S, which IC50 is on record?
**A.** 14.3 µM (active)

**Q.** For COc1cc(/C=C2/C(=O)NN(c3ccc(Cl)cc3)C2=O)ccc1OC(=O)c1ccco1, which IC50 is on record?
**A.** 11.8 µM (active)

**Q.** For CCOC(=O)c1sc(N2C(=O)C(O)=C(C(=O)c3ccco3)C2c2cccc([N+](=O)[O-])c2)nc1C (stereo unspecified), which IC50 is on record?
**A.** 19 µM (active)

**Q.** Which IC50 does the source give for COc1ccccc1/C=C1\SC(=S)N(CCC(=O)Nc2ccc(C(=O)O)c(O)c2)C1=O here?
**A.** 14.5 µM (active)

**Q.** For Cc1ccccc1N/N=C/c1sc(=O)n(Cc2cccc(C(=O)O)c2)c1Cl, which IC50 is on record?
**A.** 15.6 µM (active)
